SMILES strings stand for the structures.

The target of the experiment is T1, N-type calcium channel (Cav2.2) (Homo sapiens, UniProt Q00975).
T1 construct: expressed in transfected cells
Nature of the experiment: Cav2.2 (N-type) calcium channel block: fluorescent potassium-depolarization assay and IonWorks / PatchXpress / manual patch clamp electrophysiology. Type of experiment: cell-based. The note with it: aforementioned assays (Assay Examples 1-3); which assay or condition is not specified; read-out: IC50 in antagonizing the N-type calcium channel. The source says: Human Cav2.2 channels were stably expressed in HEK293 cells along with alpha2-delta and beta subunits of voltage-gated calcium channels. An inwardly rectifying potassium channel (Kir2.3) was also expressed in these cells to allow more precise control of the cell membrane potential by extracellular potassium concentration. At low bath potassium concentration, the membrane potential is relatively negative, and is depolarized as the bath potassium concentration is raised. In this way, the bath potassium concentration can be used to regulate the voltage-dependent conformations of the channels. Compounds are incubated with cells in the presence of low (4 mM) potassium or elevated (12, 25 or 30 mM) potassium to determine the affinity for compound block of resting (closed) channels at 4 mM potassium or affinity for block of open and inactivated channels at 12, 25 or 30 mM potassium. After the incubation period, Cav2.2 channel opening is triggered by addition of higher concentration of potassium (70 mM final concentration) to further depolarize the cell. The degree of state-dependent block can be estimated from the inhibitory potency of compounds after incubation in different potassium concentrations.
Calcium influx through Cav2.2 channels is determined using a calcium-sensitive fluorescent dye in combination with a fluorescent plate reader. Fluorescent changes were measured with either a VIPR (Aurora Instruments) or FLIPR (Molecular Devices) plate reader.
• 1. Seed cells in Poly-D-Lysine Coated 96- or 384-well plate and keep in a 37° C.-10% CO2 incubator overnight • 2. […] Read cell plate on VIPR instrument, Excitation=480 nm, Emission=535 nm • 9. With VIPR continuously reading, add 0.1 mL (96-well plate) or 0.03 mL (384-well plate) of Depolarization Buffer, which is 2× the final assay concentration, to the cell plate. […]
Block of N-type calcium channels is evaluated utilizing the IonWorks HT 384 well automated patch clamp electrophysiology device. […]
A general note: Patch clamp records ionic current or voltage across a cell membrane.

T1 sequence (Q00975 whole entry): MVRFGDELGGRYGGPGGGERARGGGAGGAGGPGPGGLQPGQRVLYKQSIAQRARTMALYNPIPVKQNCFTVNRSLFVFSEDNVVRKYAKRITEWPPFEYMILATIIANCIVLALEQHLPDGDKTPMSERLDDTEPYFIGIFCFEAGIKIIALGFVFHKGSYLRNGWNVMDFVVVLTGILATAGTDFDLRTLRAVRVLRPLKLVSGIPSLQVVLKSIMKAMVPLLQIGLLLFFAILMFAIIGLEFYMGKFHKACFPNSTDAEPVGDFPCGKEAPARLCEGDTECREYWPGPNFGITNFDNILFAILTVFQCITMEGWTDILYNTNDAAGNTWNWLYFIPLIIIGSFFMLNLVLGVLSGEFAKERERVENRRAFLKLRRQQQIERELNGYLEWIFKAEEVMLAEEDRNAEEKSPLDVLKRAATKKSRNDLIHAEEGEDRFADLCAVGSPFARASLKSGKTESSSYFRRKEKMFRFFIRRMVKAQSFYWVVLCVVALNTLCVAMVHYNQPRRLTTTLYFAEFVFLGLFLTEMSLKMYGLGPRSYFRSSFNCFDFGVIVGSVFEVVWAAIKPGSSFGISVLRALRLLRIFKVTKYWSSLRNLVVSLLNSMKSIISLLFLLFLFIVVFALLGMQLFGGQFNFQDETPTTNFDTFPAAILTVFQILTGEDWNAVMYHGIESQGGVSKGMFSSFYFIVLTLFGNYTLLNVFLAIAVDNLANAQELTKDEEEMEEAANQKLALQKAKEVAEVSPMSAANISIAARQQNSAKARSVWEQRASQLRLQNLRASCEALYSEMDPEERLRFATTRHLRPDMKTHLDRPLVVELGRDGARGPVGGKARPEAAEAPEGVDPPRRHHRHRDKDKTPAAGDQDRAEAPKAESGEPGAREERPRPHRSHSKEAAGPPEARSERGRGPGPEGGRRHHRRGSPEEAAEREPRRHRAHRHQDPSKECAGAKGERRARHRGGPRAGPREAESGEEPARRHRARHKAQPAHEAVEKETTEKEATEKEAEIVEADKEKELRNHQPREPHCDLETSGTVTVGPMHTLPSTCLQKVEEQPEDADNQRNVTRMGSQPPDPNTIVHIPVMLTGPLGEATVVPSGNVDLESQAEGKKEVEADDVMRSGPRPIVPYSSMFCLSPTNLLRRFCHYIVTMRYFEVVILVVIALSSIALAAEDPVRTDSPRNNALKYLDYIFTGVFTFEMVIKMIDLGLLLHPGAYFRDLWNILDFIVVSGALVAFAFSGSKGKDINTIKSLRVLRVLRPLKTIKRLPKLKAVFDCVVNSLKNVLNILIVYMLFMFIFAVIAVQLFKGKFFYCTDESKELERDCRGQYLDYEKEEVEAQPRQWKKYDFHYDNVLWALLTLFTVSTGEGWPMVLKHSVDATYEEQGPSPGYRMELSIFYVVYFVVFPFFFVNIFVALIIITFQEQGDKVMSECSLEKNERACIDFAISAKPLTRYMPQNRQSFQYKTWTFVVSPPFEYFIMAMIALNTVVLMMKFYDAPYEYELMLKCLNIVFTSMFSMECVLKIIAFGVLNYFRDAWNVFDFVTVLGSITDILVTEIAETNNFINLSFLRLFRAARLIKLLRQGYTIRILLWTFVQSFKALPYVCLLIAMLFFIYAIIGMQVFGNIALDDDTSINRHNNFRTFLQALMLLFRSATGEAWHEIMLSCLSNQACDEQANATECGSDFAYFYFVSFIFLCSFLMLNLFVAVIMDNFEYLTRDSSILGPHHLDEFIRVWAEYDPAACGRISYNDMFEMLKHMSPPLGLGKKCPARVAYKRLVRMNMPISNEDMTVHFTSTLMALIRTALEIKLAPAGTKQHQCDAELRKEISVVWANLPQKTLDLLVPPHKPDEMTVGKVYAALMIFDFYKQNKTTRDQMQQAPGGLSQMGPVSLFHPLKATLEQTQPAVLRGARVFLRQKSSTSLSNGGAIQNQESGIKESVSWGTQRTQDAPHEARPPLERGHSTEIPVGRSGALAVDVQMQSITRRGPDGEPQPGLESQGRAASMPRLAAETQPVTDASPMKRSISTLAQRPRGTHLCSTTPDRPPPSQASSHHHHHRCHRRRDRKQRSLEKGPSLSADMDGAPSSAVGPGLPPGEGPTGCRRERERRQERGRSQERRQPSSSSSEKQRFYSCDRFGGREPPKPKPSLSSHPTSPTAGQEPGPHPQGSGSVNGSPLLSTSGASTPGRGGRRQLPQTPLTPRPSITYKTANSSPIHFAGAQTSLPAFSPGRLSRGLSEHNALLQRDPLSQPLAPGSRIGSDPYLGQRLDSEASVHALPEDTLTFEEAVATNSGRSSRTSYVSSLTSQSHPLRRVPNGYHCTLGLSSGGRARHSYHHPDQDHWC

On to `CC1(Cc2cncnc2)C(=O)N(c2nc[nH]n2)c2ccc(-c3ccc(F)c(Cl)c3)cc21` (stereo not drawn) [Example 2, 5-(3-chloro-4-fluorophenyl)-3-methyl-3-(pyrimidin-5-ylmethyl)-1-(1H-1,2,4-triazol-3-yl)-1,3-dihydro-2H-indol-2-one], for which the IC50 (commonly the midpoint of a concentration-inhibition curve) was 230 nM.

For the molecule `CC1(Cc2cncnc2)C(=O)N(c2cnc(N)cn2)c2ccc(-c3ccc(F)c(Cl)c3)cc21` (stereo not drawn) [Example 10, 1-(5-aminopyrazin-2-yl)-5-(3-chloro-4-fluorophenyl)-3-methyl-3-(pyrimidin-5-ylmethyl)-1,3-dihydro-2H-indol-2-one], the 50% inhibitory concentration (IC50) was found to be 520 nM.

Turning to `Cn1cnc(N2C(=O)C(C)(Cc3cncnc3)c3cc(-c4cccc(OC(F)(F)F)c4)ccc32)c1` (stereo not drawn) [Example 18, 3-methyl-1-(1-methyl-1H-imidazol-4-yl)-3-pyrimidin-5-ylmethyl-5-(3-trifluoromethoxy-phenyl)-1,3-dihydro-indol-2-one], the half-maximal inhibitory concentration (IC50) is 260 nM.

For the origin of these results see patent US8273749B2, “N-substituted oxindoline derivatives as calcium channel blockers” (Merck Sharp & Dohme Corp., priority 2007, dated 2012).
